Test results reported in patent US20240376090A1, “ISOXAZOLE DERIVATIVES AS MODULATORS OF THE 5-HT2A SEROTONIN RECEPTOR USEFUL FOR THE TREATMENT OF DISORDERED RELATED THERETO” (Arena Pharmaceuticals, Inc., priority 2020, published 2024).

Columns and labels:
5-HT2B receptor = 5-HT2B receptor (Homo sapiens (Human), UniProt P41595); assay: HTRF IP-One antagonist assay, 5-HT2B; format: cell-based; details: HEK293 cells stably expressing recombinant human receptor; IP accumulation with 80 nM 5-HT
Experimental: (§1) HEK293 cells stably expressing 5-HT2 receptors were generated using standard procedures. Cells were dilution cloned and clonal cell lines stably expressing the receptors at low levels were selected for pharmacology studies. In radioligand binding studies using a variety of radiolabeled probes, receptor densities in the 2A, 2B and 2C cell lines were estimated to be 50-70, 150-200, and 10-20 fmol/mg, respectively.
(§2) Inositol phosphate accumulation assays were performed using the HTRF IP-One assay system developed by Cisbio and generally followed the manufacturer's instructions. Briefly, HEK293 cells stably expressing recombinant human receptors were harvested and resuspended in phenol-red free OptiMEM (ThermoFisher), plated into 384-well assay plates (Perkin Elmer, ProxiPlate-Plus® Cat #6008280) at 10,000 cells/well in a volume of 10 μL/well, and incubated overnight at 37° C., 5% CO2. Test compounds were solubilized and serially diluted in DMSO, and then diluted into Assay Buffer (Tris HCl 20 mM, NaCl 150 mM, LiCl 40 mM, pargyline 25 μM, pH 8) containing 80 nM 5-HT. Test compounds were added to the cells (4 μL/well addition, maximal final assay concentration typically 10 μM) and plates, incubated for 2 hrs at 37° C./5% CO2 and then removed from the incubator and allowed to cool to room temperature for 30 minutes prior to addition of IP-One detection reagents. IP-One detection reagents (6 μL/well) were added and plates incubated for 1 hr at room temperature before reading on an HTRF compatible reader such as a Perkin Elmer EnVision® or BMG PheraStar®. Dose-response experiments utilized 10-point curves, typically starting at 10 μM, with 5-fold serial dilutions. Experiments were performed with triplicate data points and independent replicate experiments were performed to ensure data consistency.

5-HT2C receptor = 5-HT2C receptor (Homo sapiens (Human), UniProt P28335); assay: HTRF IP-One antagonist assay, 5-HT2C; format: cell-based; details: HEK293 cells stably expressing recombinant human receptor; IP accumulation with 80 nM 5-HT
Chain of 5-HT2C receptor (P28335 33-458): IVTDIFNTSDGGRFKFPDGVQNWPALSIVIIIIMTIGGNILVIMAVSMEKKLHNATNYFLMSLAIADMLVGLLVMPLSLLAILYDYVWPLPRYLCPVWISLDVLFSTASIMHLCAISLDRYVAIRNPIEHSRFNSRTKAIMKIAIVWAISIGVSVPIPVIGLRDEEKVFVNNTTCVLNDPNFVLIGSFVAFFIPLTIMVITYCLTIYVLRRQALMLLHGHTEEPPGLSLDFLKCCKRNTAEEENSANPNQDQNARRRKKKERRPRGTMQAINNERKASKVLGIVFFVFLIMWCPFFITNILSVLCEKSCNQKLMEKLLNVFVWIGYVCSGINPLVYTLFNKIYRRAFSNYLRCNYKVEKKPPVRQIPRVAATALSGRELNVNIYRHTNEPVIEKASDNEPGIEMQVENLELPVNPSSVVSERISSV
Experimental: as §1, §2

5-HT2A receptor [1] = biological target: T1, 5-HT2A receptor (Homo sapiens (Human), UniProt P28223); assay: Radioligand binding assay ([3H]5-HT competition), 5-HT2A; details: [3H]5-HT radioligand, membranes of HEK293 cells expressing recombinant 5-HT2A; Ki from IC50 by Cheng-Prusoff; read-out: 5-HT2A serotonin binding Ki value
T1 sequence (P28223 whole entry): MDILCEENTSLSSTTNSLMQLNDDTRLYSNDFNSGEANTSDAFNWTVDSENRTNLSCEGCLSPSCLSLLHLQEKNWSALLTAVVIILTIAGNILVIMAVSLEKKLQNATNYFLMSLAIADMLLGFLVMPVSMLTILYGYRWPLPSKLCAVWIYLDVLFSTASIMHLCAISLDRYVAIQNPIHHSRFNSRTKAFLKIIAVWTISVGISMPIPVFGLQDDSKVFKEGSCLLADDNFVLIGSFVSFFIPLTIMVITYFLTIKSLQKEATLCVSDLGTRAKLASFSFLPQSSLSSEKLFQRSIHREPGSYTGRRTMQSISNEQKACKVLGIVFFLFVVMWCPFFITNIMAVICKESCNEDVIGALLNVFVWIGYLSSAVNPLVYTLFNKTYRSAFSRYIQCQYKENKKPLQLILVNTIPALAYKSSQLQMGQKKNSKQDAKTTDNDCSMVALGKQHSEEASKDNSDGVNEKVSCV

5-HT2A receptor [2] = biological target: T1, 5-HT2A receptor; assay: HTRF IP-One antagonist assay, 5-HT2A; format: cell-based; details: HEK293 cells stably expressing recombinant human receptor; IP accumulation with 80 nM 5-HT
Experimental: as §1, §2

Chain of 5-HT2B receptor (P41595 whole entry): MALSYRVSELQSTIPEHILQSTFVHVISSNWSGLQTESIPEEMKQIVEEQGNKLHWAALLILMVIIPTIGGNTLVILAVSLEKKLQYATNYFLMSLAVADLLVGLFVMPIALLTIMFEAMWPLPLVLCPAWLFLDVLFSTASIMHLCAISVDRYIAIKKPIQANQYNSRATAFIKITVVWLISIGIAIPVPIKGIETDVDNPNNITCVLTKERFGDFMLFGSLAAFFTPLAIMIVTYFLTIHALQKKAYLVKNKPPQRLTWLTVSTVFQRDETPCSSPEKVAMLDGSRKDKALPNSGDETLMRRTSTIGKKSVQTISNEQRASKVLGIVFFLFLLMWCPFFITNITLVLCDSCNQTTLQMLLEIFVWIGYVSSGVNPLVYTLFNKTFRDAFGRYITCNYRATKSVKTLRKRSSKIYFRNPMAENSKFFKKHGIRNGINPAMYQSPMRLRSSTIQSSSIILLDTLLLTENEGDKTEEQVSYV

Structure (SMILES) | IC50 (5-HT2B receptor) [µM] | IC50 (5-HT2C receptor) [µM] | Ki (5-HT2A receptor [1]) [nM] | IC50 (5-HT2A receptor [2]) [nM]
COc1cccc(CC(=O)Nc2ccc(OC[C@H]3CCCCN3)c(-c3c(C)noc3C)c2)c1 [Compound 222, (R)—N-(3-(3,5-dimethylisoxazol-4-yl)-4-(piperidin-2-ylmethoxy)phenyl)-2-(3-methoxyphenyl)acetamide] | ≥ 100 | ≥ 100 | 4.68 | 53.4
Cc1noc(C)c1-c1cc(NC(=O)c2ccc(F)cc2)ccc1OC1CNC1 [Compound 242, N-(4-(azetidin-3-yloxy)-3-(3,5-dimethylisoxazol-4-yl)phenyl)-4-fluorobenzamide] | 3.39 | 4.92 | 2.1 | 44.2
Cc1noc(C)c1-c1cc(NC(=O)[C@H]2C[C@H]2F)ccc1OC[C@H]1CCCCN1 [Compound 191, (1R,2R)—N-(3-(3,5-dimethylisoxazol-4-yl)-4-(((R)-piperidin-2-yl)methoxy)phenyl)-2-fluorocyclopropane-1-carboxamide] | ≥ 100 | ≥ 100 | 7.61 | 60.1
CO[C@H]1CCN(CCOc2ccc(NC(=O)C3CC3)cc2-c2c(C)noc2C)C1 [Compound 144, (S)—N-(3-(3,5-dimethylisoxazol-4-yl)-4-(2-(3-methoxypyrrolidin-1-yl)ethoxy)phenyl)cyclopropanecarboxamide] | ≥ 100 | ≥ 100 | 14.9 | 85.5
Cc1noc(C)c1-c1cc(NC(=O)C2(F)CC2)ccc1OCCN1CCC1 [Compound 117, N-[4-[2-(azetidin-1-yl)ethoxy]-3-(3,5-dimethylisoxazol-4-yl)phenyl]-1-fluoro-cyclopropanecarboxamide] | ≥ 100 | ≥ 100 | 10.3 | 20.6
CC(=N)NCCOc1ccc(NC(=O)C2CC2)cc1-c1c(C)noc1C [Compound 198, N-(4-(2-acetimidamidoethoxy)-3-(3,5-dimethylisoxazol-4-yl)phenyl)cyclopropanecarboxamide] | ≥ 100 | 3.73 | 5.39 | 22.8
COc1cccc(C(=O)Nc2ccc(OC3CNC3)c(-c3c(C)noc3C)c2)c1 [Compound 244, N-(4-(azetidin-3-yloxy)-3-(3,5-dimethylisoxazol-4-yl)phenyl)-3-methoxybenzamide] | ≥ 100 | ≥ 100 | 0.85 | 19
COc1cccc(C(=O)Nc2ccc(OCCN3CCC3)c(-c3c(C)noc3C)c2)c1 [Compound 122, N-(4-(2-(azetidin-1-yl)ethoxy)-3-(3,5-dimethylisoxazol-4-yl)phenyl)-3-methoxybenzamide] | – | – | 2.7 | 8.92
Cc1noc(C)c1-c1cc(NC(=O)Cc2cccc(F)c2)ccc1OCCN1CCC1 [Compound 125, N-(4-(2-(azetidin-1-yl)ethoxy)-3-(3,5-dimethylisoxazol-4-yl)phenyl)-2-(3-fluorophenyl)acetamide] | ≥ 100 | – | 4.5 | 38.2
Cc1noc(C)c1-c1cc(NC(=O)c2c(F)cnn2C)ccc1OC[C@H]1CCCCN1 [Compound 230, (R)—N-(3-(3,5-dimethylisoxazol-4-yl)-4-(piperidin-2-ylmethoxy)phenyl)-4-fluoro-1-methyl-1H-pyrazole-5-carboxamide] | ≥ 100 | – | 6.17 | 6.17
Cc1noc(C)c1-c1cc(NC(=O)C2(F)CC2)ccc1OC[C@H]1CCCCN1 [Compound 217, (R)—N-(3-(3,5-dimethylisoxazol-4-yl)-4-(piperidin-2-ylmethoxy)phenyl)-1-fluorocyclopropane-1-carboxamide] | ≥ 100 | – | 1.21 | 5.19
Cc1noc(C)c1-c1cc(NC(=O)[C@@H]2C[C@@H]2F)ccc1OC[C@H]1CCCCN1 [Compound 192, (1S,2S)—N-(3-(3,5-dimethylisoxazol-4-yl)-4-(((R)-piperidin-2-yl)methoxy)phenyl)-2-fluorocyclopropane-1-carboxamide] | ≥ 100 | – | 4.91 | 31.1
Cc1ncsc1CC(=O)Nc1ccc(OC[C@H]2CCCCN2)c(-c2c(C)noc2C)c1 [Compound 225, (R)—N-(3-(3,5-dimethylisoxazol-4-yl)-4-(piperidin-2-ylmethoxy)phenyl)-2-(4-methylthiazol-5-yl)acetamide] | ≥ 100 | – | 3.18 | 19.7
Cc1noc(C)c1-c1cc(NC(=O)C2CC2)ccc1OC1CNC1 [Compound 172, N-(4-(azetidin-3-yloxy)-3-(3,5-dimethylisoxazol-4-yl)phenyl)cyclopropanecarboxamide] | ≥ 100 | – | 6.5 | 109
Cc1noc(C)c1-c1cc(N(C)C(=O)C2CC2)ccc1OC[C@H]1CCCCN1 [Compound 236, N-[3-(3,5-dimethylisoxazol-4-yl)-4-[[(2R)-2-piperidyl]methoxy]phenyl]-N-methyl-cyclopropanecarboxamide] | – | – | 63900 | –
Cc1nnsc1C(=O)Nc1ccc(OC[C@H]2CCCCN2)c(-c2c(C)noc2C)c1 [Compound 215, (R)—N-(3-(3,5-dimethylisoxazol-4-yl)-4-(piperidin-2-ylmethoxy)phenyl)-4-methyl-1,2,3-thiadiazole-5-carboxamide] | – | – | 18.4 | –
CCOCCC(=O)Nc1ccc(OCCN2CCCC2)c(-c2c(C)noc2C)c1 [Compound 101, N-(3-(3,5-dimethylisoxazol-4-yl)-4-(2-(pyrrolidin-1-yl)ethoxy)phenyl)-3-ethoxypropanamide] | – | – | 78.3 | –
Cc1noc(C)c1-c1cc(NC(=O)C2CC2)ccc1OCCN1CCCC1 [Compound 167, N-[3-(3,5-dimethylisoxazol-4-yl)-4-(2-pyrrolidin-1-ylethoxy)phenyl]cyclopropanecarboxamide] | – | – | 7.71 | –
Cc1noc(C)c1-c1cc(NC(=O)c2ccc(F)cc2)ccc1OCCN1CCC1 [Compound 121, N-(4-(2-(azetidin-1-yl)ethoxy)-3-(3,5-dimethylisoxazol-4-yl)phenyl)-4-fluorobenzamide] | – | – | 4.67 | 29.7
COc1cccc(CC(=O)Nc2ccc(OCCN3CCC3)c(-c3c(C)noc3C)c2)c1 [Compound 124, N-(4-(2-(azetidin-1-yl)ethoxy)-3-(3,5-dimethylisoxazol-4-yl)phenyl)-2-(3-methoxyphenyl)acetamide] | – | – | 10.6 | –
Cc1nc(C)c(C(=O)Nc2ccc(OCCN3CCCC3)c(-c3c(C)noc3C)c2)s1 [Compound 110, N-(3-(3,5-dimethylisoxazol-4-yl)-4-(2-(pyrrolidin-1-yl)ethoxy)phenyl)-2,4-dimethylthiazole-5-carboxamide] | – | – | 110 | –
CCOC1CC1C(=O)Nc1ccc(OCCN2CCOCC2)c(-c2c(C)noc2C)c1 (centres unmarked) [Compound 135, N-[3-(3,5-dimethylisoxazol-4-yl)-4-(2-morpholinoethoxy)phenyl]-2-ethoxy-cyclopropanecarboxamide] | – | – | 20.1 | –
Cc1noc(C)c1-c1cc(NC(=O)c2ccncc2F)ccc1OCCN1CCCC1 [Compound 103, N-(3-(3,5-dimethylisoxazol-4-yl)-4-(2-(pyrrolidin-1-yl)ethoxy)phenyl)-3-fluoroisonicotinamide] | – | – | 50.8 | –
Cc1noc(C)c1-c1cc(NC(=O)[C@@H]2C[C@H]2F)ccc1OC[C@H]1CCCCN1 [Compound 190, (1S,2R)—N-(3-(3,5-dimethylisoxazol-4-yl)-4-(((R)-piperidin-2-yl)methoxy)phenyl)-2-fluorocyclopropane-1-carboxamide] | – | – | 1.19 | –
